From PubChem BioAssay (NCI)
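Tested at 5 concentrations; 48 h exposure; 96-well plates; endpoints linearly interpolated, else capped at highest concentration. The concentration for full growth arrest is given as TGI.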

Key:
Test in all cases: growth of human tumour cells (NCI), 48 h
786-0 renal = tested on: 786-0 renal
A498 renal = tested on: A498 renal
A549 NSCLC = tested on: A549 NSCLC
ACHN renal = tested on: ACHN renal
BT-549 breast = tested on: BT-549 breast
CAKI-1 renal = tested on: CAKI-1 renal
CCRF-CEM leukemia = tested on: CCRF-CEM leukemia
COLO 205 colon = tested on: COLO 205 colon
DU-145 prostate = tested on: DU-145 prostate
EKVX NSCLC = tested on: EKVX NSCLC
HCC-2998 colon = tested on: HCC-2998 colon
HCT-116 colon = tested on: HCT-116 colon
HCT-15 colon = tested on: HCT-15 colon
HL-60(TB) leukemia = tested on: HL-60(TB) leukemia
HOP-62 NSCLC = tested on: HOP-62 NSCLC
HOP-92 NSCLC = tested on: HOP-92 NSCLC
HS 578T breast = tested on: HS 578T breast
HT29 colon = tested on: HT29 colon
IGROV1 ovarian = tested on: IGROV1 ovarian
K-562 leukemia = tested on: K-562 leukemia
KM12 colon = tested on: KM12 colon
LOX IMVI melanoma = tested on: LOX IMVI melanoma
M14 melanoma = tested on: M14 melanoma
MCF7 breast = tested on: MCF7 breast
MDA-MB-231 breast = tested on: MDA-MB-231 breast
MDA-MB-435 = tested on: MDA-MB-435
MDA-N = tested on: MDA-N
MOLT-4 leukemia = tested on: MOLT-4 leukemia
NCI-H226 lung = tested on: NCI-H226 lung
NCI-H23 lung = tested on: NCI-H23 lung
NCI-H460 lung = tested on: NCI-H460 lung
NCI-H522 lung = tested on: NCI-H522 lung
NCI/ADR-RES ovarian = tested on: NCI/ADR-RES ovarian
OVCAR-3 ovarian = tested on: OVCAR-3 ovarian
OVCAR-4 ovarian = tested on: OVCAR-4 ovarian
OVCAR-5 ovarian = tested on: OVCAR-5 ovarian
OVCAR-8 ovarian = tested on: OVCAR-8 ovarian
PC-3 prostate = tested on: PC-3 prostate
RPMI-8226 leukemia = tested on: RPMI-8226 leukemia
SF-268 CNS = tested on: SF-268 CNS
SF-295 CNS = tested on: SF-295 CNS
SF-539 CNS = tested on: SF-539 CNS
SK-MEL-2 melanoma = tested on: SK-MEL-2 melanoma
SK-MEL-28 melanoma = tested on: SK-MEL-28 melanoma
SK-MEL-5 melanoma = tested on: SK-MEL-5 melanoma
SK-OV-3 ovarian = tested on: SK-OV-3 ovarian
SN12C renal = tested on: SN12C renal
SNB-19 CNS = tested on: SNB-19 CNS
SNB-75 CNS = tested on: SNB-75 CNS
SR leukemia = tested on: SR leukemia
SW-620 colon = tested on: SW-620 colon
T-47D breast = tested on: T-47D breast
TK-10 renal = tested on: TK-10 renal
U251 CNS = tested on: U251 CNS
UACC-257 melanoma = tested on: UACC-257 melanoma
UACC-62 melanoma = tested on: UACC-62 melanoma
UO-31 renal = tested on: UO-31 renal

Measured: TGI

[N-]=[N+]=NCC1OCC(O)C(OCc2ccccc2)C1OCc1ccccc1 (configuration not stated)
> 100 µM: all assays above
